The values below come from ChEMBL document CHEMBL1127181, “Novel sigma receptor ligands 1” (Bioorg Med Chem Lett, 1993).

The target of the test is Glutamate [NMDA] receptor. In words: Binding affinity towards PCP receptor in guinea pig brain membrane using radiolabeled ligand [3H]TCP (1-[1-(2-thienyl)cyclohexyl]piperidine) was determined. It is filed as cell membranes, Cavia porcellus.
For `O=C1C(c2ccc(F)cc2)=COC12CCN(Cc1ccccc1)CC2`, the Ki was over 10 µM.

`O=C1C(c2ccc(F)cc2)COC12CCN(Cc1ccccc1)CC2` (centres undefined) gave a Ki of 2.23 µM.

The compound `O=C1C=C(c2ccc(F)cc2)OC12CCN(CCc1ccccc1)CC2` showed an inhibition constant (Ki) of 8.3 µM.

On to `O=C1C=C(c2ccccc2)OC12CCN(CCc1ccccc1)CC2`, for which the Ki was over 10 µM.

Take `O=C1C(c2ccccc2)=COC12CCN(CC1CCCCC1)CC2`: the inhibition constant (Ki) is over 10 µM.

For the compound `CCN(CC)CCCC1(C)OC=C(c2ccccc2)C1=O` (centres undefined), the Ki turned out to be 100 µM.

Take `O=C1C(c2ccc(F)cc2)=COC12CCN(CC1CCCCC1)CC2`: the affinity, expressed as Ki, was 12 µM. Against the preceding compound, the Ki is about 8.3-fold lower.

Regarding `O=C1C=C(c2ccccc2)OC12CCN(Cc1ccccc1)CC2`, the inhibition constant (Ki) worked out at 4.4 µM.

In the case of `O=C1C(c2ccc(F)cc2)=COC12CCN(Cc1ccc(F)cc1)CC2`, the Ki came out at 2.03 µM.
